# Data taken from US20210128566A1, “NOVEL FUNCTIONALIZED PURINE-2,6-DIONES AND THEIR USE IN MEDICINE” (THOMAS HELLEDAYS STIFTELSE FÖR MEDICINSK FORSKNING, priority 2017, published 2021).
# Biological target: recombinant human NUDT5 (Homo sapiens, UniProt Q9UKK9)
# Test: NUDT5 inhibitor activity by malachite green reporter assay
# Assay type: biochemical
# Settings: Table 3; 6 nM NUDT5, 50 μM ADP-Ribose, 15 minutes at room temperature
# Method in brief: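 Coupled ADP-ribose hydrolysis in 10 mM Tris-acetate pH 8.0, 40 mM NaCl, 10 mM Mg acetate, 0.005% Tween-20, 1 mM DTT: 6 nM NUDT5, 50 μM ADP-Ribose, 10 U/ml alkaline phosphatase, 15 min at room temperature. Pi read by malachite green at 630 nm; compounds 100 μM–1.7 nM, 3-fold; IC50 by curve fit.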
row,Structure (SMILES),IC50 [nM]
1,"CC1CN(c2nc3c(c(=O)n(C)c(=O)n3C)n2Cc2nnc(-c3ccc(Cl)c(Cl)c3)o2)CC(C)N1 (stereo not drawn) [Example 29, 7-{[5-(3,4-dichlorophenyl)-1,3,4-oxadiazol-2-yl]methyl}-8-(3,5-dimethylpiperazin-1-yl)-1,3-dimethyl-2,3,6,7-tetrahydro-1H-purine-2,6-dione]",43.8
2,"COc1nc2c(c(=O)n(C)c(=O)n2C)n1Cc1nnc(-c2ccc(Cl)c(Cl)c2)o1 [Example 1, 7-{[5-(3,4-dichlorophenyl)-1,3,4-oxadiazol-2-yl]methyl}-8-methoxy-1,3-dimethyl-2,3,6,7-tetrahydro-1H-purine-2,6-dione]",29.1
3,"Cn1c(=O)c2c(nc(SC3CCCCC3)n2Cc2nnc(-c3ccc(Cl)c(Cl)c3)o2)n(C)c1=O [Example 7, 8-(cyclohexylsulfanyl)-7-{[5-(3,4-dichlorophenyl)-1,3,4-oxadiazol-2-yl]methyl}-1,3-dimethyl-2,3,6,7-tetrahydro-1H-purine-2,6-dione]",65.9
4,"Cn1c(=O)c2c(nc(Cc3ccccc3)n2Cc2nnc(-c3ccc(Cl)c(Cl)c3)o2)n(C)c1=O [Example 63, 8-benzyl-7-{[5-(3,4-dichlorophenyl)-1,3,4-oxadiazol-2-yl]methyl}-1,3-dimethyl-2,3,6,7-tetrahydro-1H-purine-2,6-dione]",> 1000
5,"C[C@@H]1CN(c2nc3c(c(=O)n(C)c(=O)n3C)n2Cc2nnc(-c3ccc(Cl)c(Cl)c3)o2)CCN1 [Example 47, 7-{[5-(3,4-dichlorophenyl)-1,3,4-oxadiazol-2-yl]methyl}-1,3-dimethyl-8-[(3R)-3-methylpiperazin-1-yl]-2,3,6,7-tetrahydro-1H-purine-2,6-dione]",11.9
6,"CCCCN1CCN(c2nc3c(c(=O)n(C)c(=O)n3C)n2Cc2nnc(-c3cccc(C)c3)o2)CC1 [Example 54, 8-(4-butylpiperazin-1-yl)-1,3-dimethyl-7-{[5-(3-methylphenyl)-1,3,4-oxadiazol-2-yl]methyl}-2,3,6,7-tetrahydro-1H-purine-2,6-dione]",> 1000
7,"Cc1cccc(-c2nnc(Cn3c(N4CCN(CCO)CC4)nc4c3c(=O)n(C)c(=O)n4C)o2)c1 [Example 56, 8-[4-(2-hydroxyethyl)piperazin-1-yl]-1,3-dimethyl-7-{[5-(3-methylphenyl)-1,3,4-oxadiazol-2-yl]methyl}-2,3,6,7-tetrahydro-1H-purine-2,6-dione]",922
8,"CC(C)c1nc2c(c(=O)n(C)c(=O)n2C)n1Cc1nnc(-c2ccc(Cl)c(Cl)c2)o1 [Example 62, 7-{[5-(3,4-dichlorophenyl)-1,3,4-oxadiazol-2-yl]methyl}-1,3-dimethyl-8-(propan-2-yl)-2,3,6,7-tetrahydro-1H-purine-2,6-dione]",> 1000
9,"Cc1cccc(-c2nnc(Cn3c(NCc4ccccc4)nc4c3c(=O)n(C)c(=O)n4C)o2)c1 [Example 50, 8-(benzylamino)-1,3-dimethyl-7-{[5-(3-methylphenyl)-1,3,4-oxadiazo-2-yl]methyl}-2,3,6,7-tetrahydro-1H-purine-2,6-dione]",144
10,"Cn1c(=O)c2c(nc(N3CCCC3)n2Cc2nnc(-c3ccc(Cl)c(Cl)c3)o2)n(C)c1=O [Example 28, 7-{[5-(3,4-dichlorophenyl)-1,3,4-oxadiazol-2-yl]methyl}-1,3-dimethyl-8-(pyrrolidin-1-yl)-2,3,6,7-tetrahydro-1H-purine-2,6-dione]",37
11,"COc1nc2c(c(=O)n(C)c(=O)n2C)n1Cc1nnc(-c2cccc(C)c2)o1 [Example 52, 8-methoxy-1,3-dimethyl-7-{[5-(3-methylphenyl)-1,3,4-oxadiazol-2-yl]methyl}-2,3,6,7-tetrahydro-1H-purine-2,6-dione]",378

# Same assay, conditions: Table 4; 6 nM NUDT5, 50 μM ADP-Ribose, 15 minutes at room temperature
row,Structure (SMILES),IC50 [nM]
1,"Cn1c(=O)c2c(nc(N3CCNC(=O)C3)n2Cc2nnc(-c3ccc(Cl)c(Cl)c3)o2)n(C)c1=O [Example 83, 7-{[5-(3,4-dichlorophenyl)-1,3,4-oxadiazol-2-yl]methyl}-1,3-dimethyl-8-(3-oxopiperazin-1-yl)-2,3,6,7-tetrahydro-1H-purine-2,6-dione]",20.2
2,"COc1cc(-c2nnc(Cn3c(N4CCC(C(N)=O)CC4)nc4c3c(=O)n(C)c(=O)n4C)o2)ccc1C [Example 138, 1-(7-{[5-(3-methoxy-4-methylphenyl)-1,3,4-oxadiazol-2-yl]methyl}-1,3-dimethyl-2,6-dioxo-2,3,6,7-tetrahydro-1H-purin-8-yl)piperidine-4-carboxamide]",33.4
3,"Cn1c(=O)c2c(nc(-n3cccn3)n2Cc2nnc(-c3ccc(Cl)c(Cl)c3)o2)n(C)c1=O [Example 67, 7-{[5-(3,4-dichlorophenyl)-1,3,4-oxadiazol-2-yl]methyl}-1,3-dimethyl-8-(1H-pyrazol-1-yl)-2,3,6,7-tetrahydro-1H-purine-2,6-dione]",200
4,"CCOC(=O)c1cn2c(n1)CN(c1nc3c(c(=O)n(C)c(=O)n3C)n1Cc1nnc(-c3ccc(Cl)c(Cl)c3)o1)CC2 [Example 81, ethyl 7-(7-{[5-(3,4-dichlorophenyl)-1,3,4-oxadiazol-2-yl]methyl}-1,3-dimethyl-2,6-dioxo-2,3,6,7-tetrahydro-1H-purin-8-yl)-5H,6H,7H,8H-imidazo[1,2-a]pyrazine-2-carboxylate]",149
5,"Cn1c(=O)c2c(nc(N3CCN(CCNC(=O)OC(C)(C)C)CC3)n2Cc2nnc(-c3ccc(Cl)c(Cl)c3)o2)n(C)c1=O [Example 64, tert-butyl N-{2-[4-(7-{[5-(3,4-dichlorophenyl)-1,3,4-oxadiazol-2-yl]methyl}-1,3-dimethyl-2,6-dioxo-2,3,6,7-tetrahydro-1H-purin-8-yl)piperazin-1-yl]ethyl}carbamate]",226
6,"CCOC(=O)c1cnn(-c2nc3c(c(=O)n(C)c(=O)n3C)n2Cc2nnc(-c3ccc(Cl)c(Cl)c3)o2)c1 [Example 68, ethyl 1-(7-{[5-(3,4-dichlorophenyl)-1,3,4-oxadiazol-2-yl]methyl}-1,3-dimethyl-2,6-dioxo-2,3,6,7-tetrahydro-1H-purin-8-yl)-1H-pyrazole-4-carboxylate]",214
7,"Cn1c(=O)c2c(nc(N3CCC(C(N)=O)CC3)n2Cc2nnc(-c3ccc(Cl)c(Cl)c3)o2)n(C)c1=O [Example 136, 1-(7-{[5-(3,4-dichlorophenyl)-1,3,4-oxadiazol-2-yl]methyl}-1,3-dimethyl-2,6-dioxo-2,3,6,7-tetrahydro-1H-purin-8-yl)piperidine-4-carboxamide]",8.27
8,"Cn1c(=O)c2c(nc(Cl)n2Cc2nnc(-c3ccc4cc[nH]c4c3)o2)n(C)c1=O [Example 101, 8-chloro-7-{[5-(1H-indol-6-yl)-1,3,4-oxadiazol-2-yl]methyl}-1,3-dimethyl-2,3,6,7-tetrahydro-1H-purine-2,6-dione]",358
9,"Cn1c(=O)c2c(nc(Cl)n2Cc2nnc(-c3ccc(C#N)cc3)o2)n(C)c1=O [Example 93, 4-{5-[(8-chloro-1,3-dimethyl-2,6-dioxo-2,3,6,7-tetrahydro-1H-purin-7-yl)methyl]-1,3,4-oxadiazol-2-yl}benzonitrile]",918
10,"COc1ccc(-c2nnc(Cn3c(N4CCNCC4)nc4c3c(=O)n(C)c(=O)n4C)o2)cc1 [Example 74, 7-{[5-(4-methoxyphenyl)-1,3,4-oxadiazol-2-yl]methyl}-1,3-dimethyl-8-(piperazin-1-yl)-2,3,6,7-tetrahydro-1H-purine-2,6-dione]",198
